Results published in US20060088509A1, “Isolated clk-1 -/- cells from clk-1 heterozygous animals and their use in treating oxidative stress disorders” (priority 2004, published 2006).

How the values were obtained:
mclk1 −/− ES cells [1] = assay: Sensitivity to cell death-inducing agents (trypan blue exclusion); type: cell-based, mouse; details: for Sensitivity of mclk1 −/− ES cells to the cell death-inducing agent: compared with mclk1 +/+ cells, etoposide 20 μM 24 h, anisomysin 2 μM 24 h, staurosporine 0.4 μM 24 h, all-trans retinoic acid 1 μM 96 h, sodium azide 15 μM 24 h
Description: We tested serum starvation (48 hours) and treatment with etoposide (20 μM, 24 hours), anisomysin (2 μM, 24 hours), staurosporine (0.4 μM; 24 hours), all-trans retinoic acid (1 μM, 96 hours) and sodium azide (15 μM, 24 hours).

mclk1 −/− ES cells [2] = assay: Oxygen consumption; type: cell-based, mouse; details: for Oxygen consumption, percent of the wild-type phenotype: number in brackets; for Effect on low respiration, slow growth, and LIF resistance phenotypes: sentence also covers growth and LIF assays
mclk1 −/− ES cells [3] = assay: Growth rate (cell multiplication); type: cell-based, mouse; details: for Cell multiplication, percent of the wild-type phenotype: number in brackets; for Cell multiplication: number of cells on day 5, day 1 being 1 × 10^5
Description: (§1) Cells were seeded in six-well dishes at 1×10^5/well in ES cell medium with or without supplements (UQ9: 0.16 μM, sodium pyvurate: 110 mg/L). At different time points, the cells were trypsinized and counted with a hemocytometer. The cells were also analyzed by the trypan blue exclusion method 24 hours after treatment with menadione (6 μM).

mclk1 +/+ ES cells [4] = assay: Growth rate (cell multiplication); type: cell-based, mouse; details: for Cell multiplication, percent of the wild-type phenotype: number in brackets; for Cell multiplication: number of cells on day 5, day 1 being 1 × 10^5
Description: as §1

mclk1 −/− ES cells [5] = assay: LIF requirement assay; type: cell-based, mouse; details: number in brackets
Description: (§2) ES cells were plated at a density of 500 cells/cm^2 in gelatin-coated 6-well plates in ES cell medium containing various concentration of LIF. Three days after inoculation, the proportion of undifferentiated colonies was determined after scoring the morphology of 300 randomly chosen colonies.

mclk1 +/+ ES cells [6] = assay: LIF requirement assay; type: cell-based, mouse; design: LIF requirement [% undifferentiated colonies, n = 300]: dose or concentration left out as unconfirmed; details: for LIF requirement [% undifferentiated colonies, n = 300]: day 3, medium with LIF; for LIF requirement, percent of the wild-type phenotype: number in brackets
Description: as §2

mclk1 −/− ES cells [7] = assay: Cell death assay: resistance to menadione (trypan blue exclusion); type: cell-based, mouse; details: for Resistance to menadione [% viability]: 24 hours in menadione 6 μM, with the supplement named as label; for Resistance to menadione, percent of the wild-type phenotype: number in brackets
Description: as §1

mclk1 +/+ ES cells [8] = assay: as above; type: cell-based, mouse; details: for Resistance to menadione [% viability]: 24 hours in menadione 6 μM, with the supplement named as label; for Resistance to menadione, percent of the wild-type phenotype: number in brackets
Description: as §1

mclk1 −/− ES cells [9] = assay: Reactive oxygen species measurement (DCHF-DA fluorescence); type: cell-based, mouse; details: for Basal ROS levels, percent of the wild-type phenotype / Induced ROS levels, percent of the wild-type phenotype: number in brackets; for Induced ROS levels: oxidative stress induced by 0.1 mM FeSO4 and 0.2 mM sodium ascorbate
Description: (§3) For the fluorimetric measurement of ROS, cells were incubated with 10 μM DCHF-DA (Molecular Probes) for 20 min at 37° C. ROS levels were measured fluorimetrically with excitation and emission wavelenghts of 495 nm and 530 nm, respectively. Oxidative stress was induced by incubating the cells loaded with DCHF-DA with 0.1 mM FeSO4 and 0.2 mM sodium ascorbate.

mclk1 +/+ ES cells [10] = assay: as above; type: cell-based, mouse; details: for Basal ROS levels, percent of the wild-type phenotype / Induced ROS levels, percent of the wild-type phenotype: number in brackets; for Induced ROS levels: oxidative stress induced by 0.1 mM FeSO4 and 0.2 mM sodium ascorbate
Description: as §3

mclk1 +/+ ES cells [11] = assay: Oxygen consumption; type: cell-based, mouse; design: Oxygen consumption: scale not given here; details: for Oxygen consumption, percent of the wild-type phenotype: number in brackets
Mitochondrial complex II = biological target: T1, Mitochondrial complex II (Mus musculus, UniProt Q9CQA3+Q9CXV1+Q9CZB0); assay: Mitochondrial complex II activity of mclk1 −/− ES cells; type: biochemical
T1 construct: mitochondria (containing 50 μg protein) were pre-incubated with reaction buffer; endogenous in cells; host or cells: mitochondria isolated from mouse mclk1 +/+ and mclk1 -/- ES cells
Description: Mitochondrial complex II activity was measured as follows: mitochondria (containing 50 μg protein) were pre-incubated with reaction buffer ([…]) for 10 minutes at room temperature. The reaction was started by adding 2 μg/ml Antimycin A, 2 μg/ml Rotenone, 2 mM KCN, 50 μM 2,6-Dichlorophenolindophenol (Sigma) in the presence or absence of 65 μM Q1. The linear decrease in absorbance at 600 nm was recorded (ε=21 mM-1 cm^−1).

[12] = mclk1 −/− ES cells, number in brackets

T1 sequence (Q8K2B3 43-664 partner): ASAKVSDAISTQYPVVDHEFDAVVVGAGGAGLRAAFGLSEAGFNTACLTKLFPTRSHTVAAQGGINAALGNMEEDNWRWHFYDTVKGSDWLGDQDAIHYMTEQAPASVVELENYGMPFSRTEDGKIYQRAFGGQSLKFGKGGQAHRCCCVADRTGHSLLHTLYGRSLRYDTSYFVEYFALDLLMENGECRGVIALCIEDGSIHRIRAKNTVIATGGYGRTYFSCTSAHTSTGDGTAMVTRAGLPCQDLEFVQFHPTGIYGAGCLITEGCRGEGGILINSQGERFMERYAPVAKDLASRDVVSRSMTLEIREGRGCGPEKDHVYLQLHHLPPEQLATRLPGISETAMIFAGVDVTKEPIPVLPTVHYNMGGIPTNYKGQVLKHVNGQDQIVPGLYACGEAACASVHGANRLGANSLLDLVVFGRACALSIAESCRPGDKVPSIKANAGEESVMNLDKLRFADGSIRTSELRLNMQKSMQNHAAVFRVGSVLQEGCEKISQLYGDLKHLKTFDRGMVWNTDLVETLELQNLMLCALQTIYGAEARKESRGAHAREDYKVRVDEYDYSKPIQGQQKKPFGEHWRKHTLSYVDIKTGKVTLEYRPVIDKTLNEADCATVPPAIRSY
T1 sequence (Q9CQA3 31-282): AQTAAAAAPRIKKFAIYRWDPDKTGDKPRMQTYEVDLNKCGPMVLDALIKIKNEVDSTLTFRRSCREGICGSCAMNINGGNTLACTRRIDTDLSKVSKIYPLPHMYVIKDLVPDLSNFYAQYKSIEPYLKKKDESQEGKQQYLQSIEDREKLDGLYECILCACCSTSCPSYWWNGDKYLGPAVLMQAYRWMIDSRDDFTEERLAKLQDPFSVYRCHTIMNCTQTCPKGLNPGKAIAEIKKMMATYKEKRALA
T1 sequence (Q9CZB0 30-169): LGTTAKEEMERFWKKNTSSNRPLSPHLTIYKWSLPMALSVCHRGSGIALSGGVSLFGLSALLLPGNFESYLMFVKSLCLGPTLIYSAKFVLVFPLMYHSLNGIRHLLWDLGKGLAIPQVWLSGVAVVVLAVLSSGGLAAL
T1 sequence (Q9CXV1 57-159): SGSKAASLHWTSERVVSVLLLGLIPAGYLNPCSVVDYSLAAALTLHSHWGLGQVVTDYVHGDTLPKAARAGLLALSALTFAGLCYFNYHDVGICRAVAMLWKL

SMILES: CC(=O)C(=O)[O-].[Na+] [Sodium pyruvate, sodium pyruvate]
- Resistance of mclk1 −/− cells to cell death-inducing agents upon treatment with sodium pyruvate (mclk1 −/− ES cells [1]; etoposide, anisomycin, all-trans retinoic acid, serum withdrawal): indistinguishable from that of the mclk1 +/+ cells
- Oxygen consumption (mclk1 −/− ES cells [2]): 7.9 ± 0.4 103 μl O2/sec/μg of protein
- Oxygen consumption, percent of the wild-type phenotype (mclk1 −/− ES cells [2]): (85) percent of the wild-type phenotype
- Effect on low respiration, slow growth, and LIF resistance phenotypes (mclk1 −/− ES cells [2]): ameliorated
- Cell multiplication, percent of the wild-type phenotype (mclk1 −/− ES cells [3]): (75) percent of the wild-type phenotype
- Cell multiplication (mclk1 −/− ES cells [3]): 18.9 ± 2.8 ×10^5 cells
- Cell multiplication, percent of the wild-type phenotype (mclk1 +/+ ES cells [4]): (99) percent of the wild-type phenotype
- Cell multiplication (mclk1 +/+ ES cells [4]): 25.0 ± 4.8 ×10^5 cells
- LIF requirement, percent of the wild-type phenotype (mclk1 −/− ES cells [5]): (418) percent of the wild-type phenotype
- LIF requirement [% undifferentiated colonies, n = 300] (mclk1 +/+ ES cells [6]): 39.3 ± 12.7 % undifferentiated colonies
- LIF requirement, percent of the wild-type phenotype (mclk1 +/+ ES cells [6]): (90) percent of the wild-type phenotype
- Resistance to menadione [% viability] (mclk1 −/− ES cells [7]): 68.9 ± 6.5 % viability
- Resistance to menadione, percent of the wild-type phenotype (mclk1 −/− ES cells [7]): (304) percent of the wild-type phenotype
- Resistance to menadione [% viability] (mclk1 +/+ ES cells [8]): 23 ± 7.5 % viability
- Resistance to menadione, percent of the wild-type phenotype (mclk1 +/+ ES cells [8]): (101) percent of the wild-type phenotype
- Basal ROS levels (mclk1 −/− ES cells [9]): 2.3 ± 0.2 Fluorescence Unit × 100/μg pro
- Basal ROS levels, percent of the wild-type phenotype (mclk1 −/− ES cells [9]): (57) percent of the wild-type phenotype
- Induced ROS levels, percent of the wild-type phenotype (mclk1 −/− ES cells [9]): (70) percent of the wild-type phenotype
- Induced ROS levels (mclk1 −/− ES cells [9]): 8.1 ± 1.1 Fluorescence Unit × 100/μg Pro
- Basal ROS levels (mclk1 +/+ ES cells [10]): 4.1 ± 0.3 Fluorescence Unit × 100/μg pro
- Basal ROS levels, percent of the wild-type phenotype (mclk1 +/+ ES cells [10]): (100) percent of the wild-type phenotype
- Induced ROS levels, percent of the wild-type phenotype (mclk1 +/+ ES cells [10]): (102) percent of the wild-type phenotype
- Induced ROS levels (mclk1 +/+ ES cells [10]): 11.8 ± 1.2 Fluorescence Unit × 100/μg Pro
- Oxygen consumption (mclk1 +/+ ES cells [11]): 9.1 ± 0.4 103 μl O2/sec/μg of protein
- Oxygen consumption, percent of the wild-type phenotype (mclk1 +/+ ES cells [11]): (98) percent of the wild-type phenotype

SMILES: COC1=C(OC)C(=O)C(C/C=C(\C)CC/C=C(\C)CC/C=C(\C)CC/C=C(\C)CC/C=C(\C)CC/C=C(\C)CC/C=C(\C)CC/C=C(\C)CC/C=C(\C)CCC=C(C)C)=C(C)C1=O [UQ9, ubiquinone]
- Oxygen consumption (mclk1 −/− ES cells [2]): 6.8 ± 0.7 103 μl O2/sec/μg of protein
- Oxygen consumption, percent of the wild-type phenotype (mclk1 −/− ES cells [2]): (72) percent of the wild-type phenotype
- Effect on low respiration, slow growth, and LIF resistance phenotypes (mclk1 −/− ES cells [2]): ameliorated
- Cell multiplication, percent of the wild-type phenotype (mclk1 −/− ES cells [3]): (69) percent of the wild-type phenotype
- Cell multiplication (mclk1 −/− ES cells [3]): 17.5 ± 0.4 ×10^5 cells
- Cell multiplication, percent of the wild-type phenotype (mclk1 +/+ ES cells [4]): (100) percent of the wild-type phenotype
- Cell multiplication (mclk1 +/+ ES cells [4]): 25.3 ± 5.5 ×10^5 cells
- LIF requirement, percent of the wild-type phenotype (mclk1 −/− ES cells [5]): (446) percent of the wild-type phenotype
- LIF requirement [% undifferentiated colonies, n = 300] (mclk1 +/+ ES cells [6]): 39.0 ± 18.5 % undifferentiated colonies
- LIF requirement, percent of the wild-type phenotype (mclk1 +/+ ES cells [6]): (90) percent of the wild-type phenotype
- Resistance to menadione [% viability] (mclk1 −/− ES cells [7]): 91.3 ± 3.4 % viability
- Resistance to menadione, percent of the wild-type phenotype (mclk1 −/− ES cells [7]): (403) percent of the wild-type phenotype
- Resistance to menadione [% viability] (mclk1 +/+ ES cells [8]): 24 ± 2.9 % viability
- Resistance to menadione, percent of the wild-type phenotype (mclk1 +/+ ES cells [8]): (105) percent of the wild-type phenotype
- Basal ROS levels (mclk1 −/− ES cells [9]): 2.4 ± 0.3 Fluorescence Unit × 100/μg pro
- Basal ROS levels, percent of the wild-type phenotype (mclk1 −/− ES cells [9]): (59) percent of the wild-type phenotype
- Induced ROS levels, percent of the wild-type phenotype (mclk1 −/− ES cells [9]): (57) percent of the wild-type phenotype
- Induced ROS levels (mclk1 −/− ES cells [9]): 6.7 ± 1.2 Fluorescence Unit × 100/μg Pro
- Basal ROS levels (mclk1 +/+ ES cells [10]): 3.8 ± 0.2 Fluorescence Unit × 100/μg pro
- Basal ROS levels, percent of the wild-type phenotype (mclk1 +/+ ES cells [10]): (94) percent of the wild-type phenotype
- Induced ROS levels, percent of the wild-type phenotype (mclk1 +/+ ES cells [10]): (100) percent of the wild-type phenotype
- Induced ROS levels (mclk1 +/+ ES cells [10]): 11.5 ± 0.5 Fluorescence Unit × 100/μg Pro
- Oxygen consumption (mclk1 +/+ ES cells [11]): 8.96 ± 0.8 103 μl O2/sec/μg of protein
- Oxygen consumption, percent of the wild-type phenotype (mclk1 +/+ ES cells [11]): (96) percent of the wild-type phenotype
- Mitochondrial complex II activity without exogenous Q1 (Mitochondrial complex II; mclk1 −/− ES cells grown with the supplement): 9.1 ± 0.5 nmol/min/mg protein
- Mitochondrial complex II activity with exogenous Q1 (Mitochondrial complex II; mclk1 −/− ES cells grown with the supplement, Q1 added in vitro): 39.0 ± 3.5 nmol/min/mg protein
- Mitochondrial complex II activity with exogenous Q1, percent of the wild-type phenotype (Mitochondrial complex II; [12]): (64) percent of the wild-type phenotype
- Mitochondrial complex II activity without exogenous Q1, percent of the wild-type phenotype (Mitochondrial complex II; [12]): (60) percent of the wild-type phenotype

SMILES: CC1=C(/C=C/C(C)=C/C=C/C(C)=C/C(=O)O)C(C)(C)CCC1 [all-trans retinoic acid]
- Sensitivity of mclk1 −/− ES cells to the cell death-inducing agent (mclk1 −/− ES cells [1]): resistant

SMILES: COc1ccc(C[C@H]2NC[C@H](O)[C@H]2OC(C)=O)cc1 [anisomycin]
- Sensitivity of mclk1 −/− ES cells to the cell death-inducing agent (mclk1 −/− ES cells [1]): resistant

SMILES: COc1cc([C@@H]2c3cc4c(cc3[C@@H](O[C@@H]3O[C@@H]5CO[C@@H](C)O[C@H]5[C@H](O)[C@H]3O)[C@H]3COC(=O)[C@H]23)OCO4)cc(OC)c1O [etoposide]
- Sensitivity of mclk1 −/− ES cells to the cell death-inducing agent (mclk1 −/− ES cells [1]): resistant

SMILES: CC1=CC(=O)c2ccccc2C1=O [menadione]
- Sensitivity of mclk1 −/− ES cells to the cell death-inducing agent (mclk1 −/− ES cells [1]): resistance
- Resistance to menadione [% viability] (mclk1 −/− ES cells [7]): 68.4 ± 5.4 % viability
- Resistance to menadione, percent of the wild-type phenotype (mclk1 −/− ES cells [7]): (304) percent of the wild-type phenotype
- Resistance to menadione [% viability] (mclk1 +/+ ES cells [8]): 22.7 ± 5.4 % viability
- Resistance to menadione, percent of the wild-type phenotype (mclk1 +/+ ES cells [8]): (100) percent of the wild-type phenotype

SMILES: CN[C@@H]1C[C@H]2O[C@@](C)([C@@H]1OC)n1c3ccccc3c3c4c(c5c6ccccc6n2c5c31)C(=O)NC4 [staurosporine]
- Sensitivity of mclk1 −/− ES cells to the cell death-inducing agent (mclk1 −/− ES cells [1]): neither resistant nor hyper-sensitive
